The target in data set [1] is T1, Prostaglandin G/H synthase 1 (Oryctolagus cuniculus, UniProt O97554).
T1 sequence (O97554 whole entry): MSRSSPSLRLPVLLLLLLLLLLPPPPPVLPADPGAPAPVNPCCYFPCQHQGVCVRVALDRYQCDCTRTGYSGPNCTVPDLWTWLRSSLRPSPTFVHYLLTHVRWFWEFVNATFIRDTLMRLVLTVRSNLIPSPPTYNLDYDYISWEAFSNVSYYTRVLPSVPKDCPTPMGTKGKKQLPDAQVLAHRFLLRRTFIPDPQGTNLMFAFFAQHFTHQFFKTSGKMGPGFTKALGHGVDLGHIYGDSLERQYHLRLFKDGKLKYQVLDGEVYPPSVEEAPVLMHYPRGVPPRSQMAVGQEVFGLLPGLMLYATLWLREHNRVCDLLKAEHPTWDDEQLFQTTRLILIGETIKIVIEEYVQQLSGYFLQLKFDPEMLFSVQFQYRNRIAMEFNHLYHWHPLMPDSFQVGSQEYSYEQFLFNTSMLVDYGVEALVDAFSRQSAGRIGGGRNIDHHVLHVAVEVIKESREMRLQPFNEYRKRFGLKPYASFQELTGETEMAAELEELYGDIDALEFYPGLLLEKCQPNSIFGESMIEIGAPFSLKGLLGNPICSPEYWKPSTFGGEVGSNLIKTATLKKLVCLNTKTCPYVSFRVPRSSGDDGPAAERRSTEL
Put plainly: Inhibition of COX-1 in rabbit peripheral venous blood assessed as formation of 12-hydroxyheptadecatrienoic acid after 24 hrs by HPLC in presence of calcium ionophore A23187.

Data set [2] in a line: Inhibition of 5-LOX in rabbit peripheral venous blood assessed as formation of […] after 30 mins by HPLC. The class given is tissue-based, Oryctolagus cuniculus.
Data set [3] has as its system Rattus norvegicus. Put plainly: Antiinflammatory activity in Wistar rat assessed as inhibition of carrageenan-induced paw edema at 10.38 mg/kg, po administered 1 hr before carrageenan challenge measured at 1 hr by plethysmometer. In kind it is functional. (In general: Carrageenan injected into the paw causes an acute inflammation.)
For data set [4], the system named is Rattus norvegicus. Nature of the data set: Antiinflammatory activity in Wistar rat assessed as inhibition of carrageenan-induced paw edema at 10.38 mg/kg, po administered 1 hr before carrageenan challenge measured at 3 hrs by plethysmometer. The class given is functional.
Data set [5] has as its system Rattus norvegicus. Put plainly: Antiinflammatory activity in Wistar rat assessed as inhibition of carrageenan-induced paw edema at 10.38 mg/kg, po administered 1 hr before carrageenan challenge measured at 6 hrs by plethysmometer. In kind it is functional.
The subject of data set [6] is Mus musculus. Nature of the data set: Analgesic activity in BALB/c mouse assessed as inhibition of acetic acid-induced writhing response for 15 mins at 20.76 mg/kg, po. The class given is functional. The note with it: 0.25 h. For orientation: An intraperitoneal irritant provokes the stretching counted in writhing tests.
Data set [7] concerns Rattus norvegicus. Put plainly: Ulcerogenic effect in Wistar rat assessed as gastric ulcer area at 10.38 mg/kg, po administered for 7 days by microscopy. The class given is toxicity, organism-based, Stomach. Also on record: dose 10.38 mg/kg, route oral. The note with it: in vivo, 168 h.
In data set [8] the target is T2, Prostaglandin G/H synthase 2 (Oryctolagus cuniculus, UniProt O02768).
T2 sequence (O02768 whole entry): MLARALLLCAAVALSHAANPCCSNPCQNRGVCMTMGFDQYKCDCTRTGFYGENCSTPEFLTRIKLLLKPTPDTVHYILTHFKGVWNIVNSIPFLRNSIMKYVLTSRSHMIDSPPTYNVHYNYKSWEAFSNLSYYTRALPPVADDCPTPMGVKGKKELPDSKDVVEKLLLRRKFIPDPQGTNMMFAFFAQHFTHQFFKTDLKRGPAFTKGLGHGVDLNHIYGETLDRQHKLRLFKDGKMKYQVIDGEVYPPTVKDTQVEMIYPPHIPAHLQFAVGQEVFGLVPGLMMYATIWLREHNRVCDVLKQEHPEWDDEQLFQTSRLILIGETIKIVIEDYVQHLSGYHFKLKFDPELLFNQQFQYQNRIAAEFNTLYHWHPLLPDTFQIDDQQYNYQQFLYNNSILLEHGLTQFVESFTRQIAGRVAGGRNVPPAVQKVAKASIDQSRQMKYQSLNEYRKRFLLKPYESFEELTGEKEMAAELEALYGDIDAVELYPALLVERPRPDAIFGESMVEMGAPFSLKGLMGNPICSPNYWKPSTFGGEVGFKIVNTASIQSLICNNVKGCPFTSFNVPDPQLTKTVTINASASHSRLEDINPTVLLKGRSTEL
Nature of the data set: Inhibition of COX-2 in rabbit peripheral venous blood assessed as formation of 12-hydroxyheptadecatrienoic acid after 24 hrs in by HPLC presence of calcium ionophore […] and lipopolysaccharide. The class given is tissue-based.

Another data set is filed under the species Oryctolagus cuniculus. Put plainly: Selectivity ratio, IC50 for COX-1in rabbit peripheral venous blood to IC50 for COX-2 in rabbit peripheral venous blood. The class given is tissue-based.
Data set [9] concerns Rattus norvegicus. Put plainly: Antiinflammatory activity in Wistar rat assessed as inhibition of carrageenan-induced paw edema at 10.12 mg/kg, po administered 1 hr before carrageenan challenge measured at 1 hr by plethysmometer. In kind it is functional.
Data set [10] has as its system Rattus norvegicus. Put plainly: Antiinflammatory activity in Wistar rat assessed as inhibition of carrageenan-induced paw edema at 10.12 mg/kg, po administered 1 hr before carrageenan challenge measured at 3 hrs by plethysmometer. In kind it is functional.
The subject of data set [11] is Rattus norvegicus. Put plainly: Antiinflammatory activity in Wistar rat assessed as inhibition of carrageenan-induced paw edema at 10.12 mg/kg, po administered 1 hr before carrageenan challenge measured at 6 hrs by plethysmometer. In kind it is functional.
Data set [12] concerns Mus musculus. Put plainly: Analgesic activity in BALB/c mouse assessed as inhibition of acetic acid-induced writhing response for 15 mins at 20.24 mg/kg, po. The class given is functional. Conditions: 0.25 h.
In data set [13] the test system is Rattus norvegicus. Put plainly: Ulcerogenic effect in Wistar rat assessed as gastric ulcer area at 10.12 mg/kg, po administered for 7 days by microscopy. In kind it is toxicity, organism-based, Stomach. Conditions: in vivo, 168 h. Also on record: dose 10.12 mg/kg, route oral.
Data set [14] relates to Rattus norvegicus. Put plainly: Antiinflammatory activity in Wistar rat assessed as inhibition of carrageenan-induced paw edema at 10.15 mg/kg, po administered 1 hr before carrageenan challenge measured at 1 hr by plethysmometer. In kind it is functional.
In data set [15] the test system is Rattus norvegicus. Nature of the data set: Antiinflammatory activity in Wistar rat assessed as inhibition of carrageenan-induced paw edema at 10.15 mg/kg, po administered 1 hr before carrageenan challenge measured at 3 hrs by plethysmometer. In kind it is functional.
Data set [16] concerns Rattus norvegicus. Put plainly: Antiinflammatory activity in Wistar rat assessed as inhibition of carrageenan-induced paw edema at 10.15 mg/kg, po administered 1 hr before carrageenan challenge measured at 6 hrs by plethysmometer. The class given is functional.
The test system of data set [17] is Mus musculus. Put plainly: Analgesic activity in BALB/c mouse assessed as inhibition of acetic acid-induced writhing response for 15 mins at 20.30 mg/kg, po. The note with it: 0.25 h. In kind it is functional.
In data set [18] the test system is Rattus norvegicus. Nature of the data set: Ulcerogenic effect in Wistar rat assessed as gastric ulcer area at 10.15 mg/kg, po administered for 7 days by microscopy. The class given is toxicity, organism-based, Stomach. Also on record: dose 10.15 mg/kg, route oral. Conditions: in vivo, 168 h.

What is called IC50 is the concentration that gives 50% inhibition. Usually inhibition in vivo stands for the relative decrease from the control value, in per cent.

Take `NC(=O)N1C(=O)/C(=C(\O)c2cccs2)c2cc(Cl)ccc21` [TENIDAP]: the IC50 in data set [1] is 2.56 µM; in [2], 36.7 µM. The inhibition in vivo at 10.38 mg/kg was 23.8% with Rattus norvegicus [3], 38.9% in the data set with Rattus norvegicus [4] and 19.6% with Rattus norvegicus [5]. The inhibition in vivo at 20.76 mg/kg in the data set on Mus musculus [6] turned out to be 70.4%. Further, the Activity with Rattus norvegicus [7] stood at 3.75 mm2.

With `Cc1ccc2c(c1)/C(=C\c1ccc(S(C)(=O)=O)cc1)C(=O)N2`, the IC50 in [8], in [1] and in data set [2] was more than 50 µM each time.

As for `CS(=O)(=O)c1ccc(/C=C2/C(=O)Nc3cc(Cl)ccc32)cc1`, the IC50 in [8] was 2.39 µM; in data set [1] it was 0.24 µM; in data set [2] it was 2.99 µM. For the same compound, in the data set listed under Oryctolagus cuniculus, the Ratio IC50 was 0.1. For the same compound, the inhibition in vivo at 10.12 mg/kg was determined as 19.4% in the data set with Rattus norvegicus [9], 23.8% in the data set with Rattus norvegicus [10] and 21.6% in the data set on Rattus norvegicus [11]. In the data set on Mus musculus [12], the inhibition in vivo at 20.24 mg/kg was 55.2%. The Activity with Rattus norvegicus [13] is recorded as 0.75 mm2.

With `Cc1ccc2c(c1)/C(=C\c1ccc(S(N)(=O)=O)cc1)C(=O)N2`, the IC50 in data set [8], in data set [1] and in data set [2] was more than 50 µM in each case.

For the compound `NS(=O)(=O)c1ccc(/C=C2/C(=O)Nc3cc(Cl)ccc32)cc1`, the IC50 in data set [8], in data set [1] and in data set [2] was more than 50 µM throughout.

Consider `NS(=O)(=O)c1ccc(/C=C2/C(=O)Nc3ccc(Br)cc32)cc1`, for which the values for the IC50 in data set [8], in [1] and in data set [2] were 20.9 µM, 24.6 µM and 10.6 µM, respectively. The Ratio IC50 in the data set listed under Oryctolagus cuniculus turned out to be 1.18.

On to `NS(=O)(=O)c1ccc(/C=C2/C(=O)Nc3ccc(Cl)cc32)cc1`, for which the IC50 came to 3.31 µM in [8], 0.16 µM in data set [1] and 3.37 µM in data set [2]. For the same compound, in the data set filed under Oryctolagus cuniculus, the Ratio IC50 was 0.05. The inhibition in vivo at 10.15 mg/kg with Rattus norvegicus [14] was determined as 19.1%; with Rattus norvegicus [15], 33.3%; in the data set with Rattus norvegicus [16], 19.6%. In addition, in the data set with Mus musculus [17], the inhibition in vivo at 20.3 mg/kg was found to be 80.7%. Further, the Activity in the data set with Rattus norvegicus [18] was 0.19 mm2.

These data come from ChEMBL document CHEMBL1287762, “Synthesis and biological evaluation of 3-[4-(amino/methylsulfonyl)phenyl]methylene-indolin-2-one derivatives as novel COX-1/2 and 5-LOX inhibitors” (Bioorg Med Chem Lett, 2010).
